From US11731943B2, “Therapeutic compounds, compositions and methods of use thereof” (priority 2016, dated 2023)
Read-outs that look alike come from different tables or passages of the source.

Columns and labels:
[1] = tested on: JAK1-dependent STAT6 phosphorylation downstream of IL-13 stimulation in BEAS-2B human bronchial epithelial cells; assay: JAK1 pathway assay in BEAS-2B cells (IL-13-pSTAT6, MSD); type: cell-based; conditions: BEAS-2B cells, IL-13 stimulation, read-out: IL-13 p-STAT6 BEAS-2B IC50
Protocol: JAK1 Pathway Assay in Cell Lines was carried out as follows:
Inhibitor potency (EC50) was determined in cell-based assays designed to measure JAK1 dependent STAT phosphorylation.
In one assay approach, TF-1 human erythroleukemia cells obtained from the American Type Culture Collection (ATCC; Manassas, Va.) were used to measure JAK1-dependent STAT6 phosphorylation downstream of IL-13 stimulation. Prior to use in the assays, TF-1 cells were starved of GM-CSF overnight in OptiMEM medium (Life Technologies, Grand Island, N.Y.) supplemented with 0.5% charcoal/dextran stripped fetal bovine serum (FBS), 0.1 mM non-essential amino acids (NEAA), and 1 mM sodium pyruvate. The assays were run in 384-well plates in serum-free OptiMEM medium using 300,000 cells per well. In a second assay approach, BEAS-2B human bronchial epithelial cells obtained from ATCC were plated at 100,000 cells per well of a 96-well plate one day prior to the experiment. The BEAS-2B assay was run in complete growth medium (bronchial epithelial basal medium plus bulletkit; Lonza; Basel, Switzerland).
Test compounds were serially diluted 1:2 in DMSO and then diluted 1:50 in medium just before use. Diluted compounds were added to the cells, for a final DMSO concentration of 0.2%, and incubated for 30 min (for the TF-1 assay) or 1 hr (for the BEAS-2B assay) at 37° C. Then, cells were stimulated with human recombinant cytokine at their respective EC90 concentrations, as previously determined for each individual lot. Cells were stimulated with IL-13 (R&D Systems, Minneapolis, Minn.) for 15 min at 37° C. The TF-1 cell reactions were stopped by the direct addition of 10× lysis buffer (Cell Signaling Technologies, Danvers, Mass.), whereas the BEAS-2B cell incubations were halted by the removal of medium and addition of 1× lysis buffer. The resultant samples were frozen in the plates at −80° C. Compound mediated inhibition of STATE phosphorylation was measured in the cell lysates using MesoScale Discovery (MSD) technology (Gaithersburg, Md.).

[2] = target: isolated recombinant JAK2 kinase domain (Homo sapiens (Human), UniProt O60674); assay: JAK2 enzyme assay (Caliper LabChip, Ki); type: biochemical
isolated recombinant JAK2 kinase domain, sequence (O60674 849-1124): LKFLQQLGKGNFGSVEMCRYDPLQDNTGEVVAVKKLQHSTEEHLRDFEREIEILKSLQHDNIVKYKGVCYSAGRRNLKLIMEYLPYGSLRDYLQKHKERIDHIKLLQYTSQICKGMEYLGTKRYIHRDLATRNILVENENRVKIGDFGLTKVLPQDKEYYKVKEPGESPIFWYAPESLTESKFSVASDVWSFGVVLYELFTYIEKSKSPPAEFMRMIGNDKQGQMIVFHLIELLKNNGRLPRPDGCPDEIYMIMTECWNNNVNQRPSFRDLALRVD
Procedure, shortened: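 Recombinant human JAK1 or JAK2 kinase domain phosphorylating a 5-carboxyfluorescein-labelled JAK3-derived peptide; 30 min at 22 °C, stopped with EDTA (50 mM final). Phosphorylated product measured as a fraction of total peptide by Caliper LabChip mobility shift.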

[3] = target: isolated recombinant JAK1 kinase domain (Homo sapiens (Human), UniProt P23458); assay: JAK1 enzyme assay (Caliper LabChip, Ki); type: biochemical
isolated recombinant JAK1 kinase domain, sequence (P23458 875-1153): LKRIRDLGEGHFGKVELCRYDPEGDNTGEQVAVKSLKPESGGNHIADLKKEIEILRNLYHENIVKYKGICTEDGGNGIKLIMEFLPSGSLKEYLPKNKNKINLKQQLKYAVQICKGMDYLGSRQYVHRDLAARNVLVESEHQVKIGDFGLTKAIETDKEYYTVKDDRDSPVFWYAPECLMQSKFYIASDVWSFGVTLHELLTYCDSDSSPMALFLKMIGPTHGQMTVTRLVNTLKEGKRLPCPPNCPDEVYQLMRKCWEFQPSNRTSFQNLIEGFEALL
Procedure, shortened: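 Recombinant human JAK1 kinase domain phosphorylating an N-terminally 5-carboxyfluorescein-labelled JAK3-derived peptide, 30 min at 22 °C, stopped with EDTA (50 mM final). Phosphorylated fraction of total peptide read by Caliper LabChip mobility shift; Ki from Morrison tight-binding fit corrected for ATP competition (Ki=Ki,app/(1+[ATP]/Km,app)).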

Compound | IC50 ([1]; Homo sapiens, BEAS-2B) | Ki [2] | Ki ([3]; read-out: JAK1 Ki) | IC50 [1] | Ki [3]
C#CC1CC1C(=O)Nc1nn(C2(CC#N)CCN(Cc3ccc(-c4ccccc4)cc3)CC2F)cc1C(N)=O (centres unmarked) [Example 254, 1-[4-(cyanomethyl)-3-fluoro-1-[(4-phenylphenyl)methyl]-4-piperidyl]-3-[(2-ethynylcyclopropanecarbonyl)amino]pyrazole-4-carboxamide] | 43 nM | 0.82 nM | 0.43 nM |  | 
CCn1ccc(-c2ccc(CN3CCC(CC#N)(n4cc(C(N)=O)c(NC(=O)C5CC5)n4)C(F)C3)c(F)c2)n1 (centres unmarked) [Example 242, 1-[4-(cyanomethyl)-1-[[4-(1-ethylpyrazol-3-yl)-2-fluoro-phenyl]methyl]-3-fluoro-4-piperidyl]-3-(cyclopropanecarbonylamino) pyrazole-4-carboxamide] | 55 nM | 0.51 nM | 0.6 nM |  | 
N#CCC1(n2cc(C(N)=O)c(NC(=O)C3CC3)n2)CCN(Cc2ccc(-c3ccccc3)cc2)CC1 [Example 6, 1-(1-([1,1′-Biphenyl]-4-ylmethyl)-4-(cyanomethyl)piperidin-4-yl)-3-(cyclopropanecarboxamido)-1H-pyrazole-4-carboxamide] | 31 nM | 3.6 nM | 0.8 nM |  | 
N#CCC1(n2cc(C(N)=O)c(NC(=O)C3CC3C#N)n2)CCN(Cc2ccc(-c3ccccc3)cc2F)CC1F (centres unmarked) [Example 219, 3-[(2-cyanocyclopropanecarbonyl)amino]-1-[4-(cyanomethyl)-3-fluoro-1-[(2-fluoro-4-phenyl-phenyl)methyl]-4-piperidyl]pyrazole-4-carboxamide] |  | 3.6 nM | 1.7 nM | 68 nM | 
CCc1ccc(C2(F)CN(C3CCC(CC#N)(n4cc(C(N)=O)c(NC(=O)C5CC5)n4)CC3)C2)cc1 (centres unmarked) [Example 265, 1-[1-(cyanomethyl)-4-[3-(4-ethylphenyl)-3-fluoro-azetidin-1-yl]cyclohexyl]-3-(cyclopropanecarbonylamino) pyrazole-4-carboxamide] | 88 nM | 4.2 nM | 1.1 nM |  | 
N#CCC1(n2cc(C(N)=O)c(NC(=O)C3CC3)n2)CCN(Cc2ccc(C3=CCCC3)cc2)CC1F (centres unmarked) [Example 261, 1-[4-(cyanomethyl)-1-[[4-(cyclopenten-1-yl)phenyl]methyl]-3-fluoro-4-piperidyl]-3-(cyclopropanecarbonylamino) pyrazole-4-carboxamide] | 21 nM | 0.82 nM | 0.56 nM |  | 
N#CCC1(n2cc(C(N)=O)c(NC(=O)C3CC3)n2)CCC(Nc2ccccc2)CC1 (centres unmarked) [Example 282, 1-[4-anilino-1-(cyanomethyl)cyclohexyl]-3-(cyclopropanecarbonylamino) pyrazole-4-carboxamide] | 48 nM | 9.6 nM | 0.62 nM |  | 
COc1ccc(-c2ccc(CN3CCC(CC#N)(n4cc(C(N)=O)c(NC(=O)C5CC5)n4)CC3)cc2)cc1 [Example 153, 1-[4-(cyanomethyl)-1-[[4-(4-methoxyphenyl)phenyl]methyl]-4-piperidyl]-3-(cyclopropanecarbonylamino) pyrazole-4-carboxamide] | 103 nM | 30.8 nM | 1.1 nM |  | 
N#CCC1(n2cc(C(N)=O)c(NC(=O)C3CC3C#N)n2)CCN(Cc2ccc(-c3ccccc3)cc2)CC1F (centres unmarked) [Example 192, 3-[(2-cyanocyclopropanecarbonyl)amino]-1-[4-(cyanomethyl)-3-fluoro-1-[(4-phenylphenyl)methyl]-4-piperidyl]pyrazole-4-carboxamide] | 28 nM | 1.2 nM | 0.35 nM |  | 
CCOC1(C(F)(F)F)CN([C@H]2CC[C@](CC#N)(n3cc(C(N)=O)c(NC(=O)C4CC4)n3)CC2)C1 (single isomer, unassigned) [Example 10] | > 1000 nM | > 319 nM | > 562 nM |  | 
COC(=O)Nc1nn(C2(CC#N)CCN(Cc3ccc(C4CC4)cc3)CC2F)cc1C(N)=O (centres unmarked) [Example 281, methyl N-[4-carbamoyl-1-[4-(cyanomethyl)-1-[(4-cyclopropylphenyl)methyl]-3-fluoro-4-piperidyl]pyrazol-3-yl]carbamate] | 36 nM | 2.2 nM | 1.1 nM |  | 
N#CCC1(n2cc(C(N)=O)c(NC(=O)C3CC3)n2)CCN(Cc2ccc(-c3ncco3)cc2)CC1F (centres unmarked) [Example 255, 1-[4-(cyanomethyl)-3-fluoro-1-[(4-oxazol-2-ylphenyl)methyl]-4-piperidyl]-3-(cyclopropanecarbonylamino) pyrazole-4-carboxamide] | 70 nM | 0.96 nM | 1.2 nM |  | 
Cn1ccc(-c2ccc(CN3CCC(CC#N)(n4cc(C(N)=O)c(NC(=O)C5CC5)n4)CC3)cc2)n1 [Example 82] | 688 nM | 14.3 nM | 4.9 nM |  | 
N#CCC1(n2cc(C(N)=O)c(NC(=O)C3CC3)n2)CCN(Cc2ccc(C3CCCCC3)cc2)CC1F (centres unmarked) [Example 271, 1-[4-(cyanomethyl)-1-[(4-cyclohexylphenyl)methyl]-3-fluoro-4-piperidyl]-3-(cyclopropanecarbonylamino) pyrazole-4-carboxamide] | 83 nM | 15 nM | 2.6 nM |  | 
C#Cc1ccc(CN2CCC(CC#N)(n3cc(C(N)=O)c(NC(=O)OC)n3)C(F)C2)c(Cl)c1 (centres unmarked) [Example 289, methyl N-[4-carbamoyl-1-[1-[(2-chloro-4-ethynyl-phenyl)methyl]-4-(cyanomethyl)-3-fluoro-4-piperidyl]pyrazol-3-yl]carbamate] | 15 nM | 0.55 nM | 0.26 nM |  | 
N#CC[C@@]1(n2cc(C(N)=O)c(NC(=O)C3CC3)n2)CCN(Cc2ccc(-c3ccccc3)cc2)C[C@@H]1F (single isomer, unassigned) [Example 13] | 37 nM | 2.2 nM | 0.6 nM |  | 
COC(=O)Nc1nn(C2(CC#N)CCN(CC3CCC(c4ccccc4)CC3)CC2F)cc1C(N)=O (centres unmarked) [Example 236, methyl N-[4-carbamoyl-1-[4-(cyanomethyl)-3-fluoro-1-[(4-phenylcyclohexyl)methyl]-4-piperidyl]pyrazol-3-yl]carbamate] |  | 1.4 nM | 0.21 nM | 19 nM | 
N#CCC1(n2cc(C(N)=O)c(NC(=O)C3CC3)n2)CCN(Cc2ccc(-c3ccccn3)cc2)CC1 [Example 185, 1-[4-(cyanomethyl)-1-[[4-(2-pyridyl)phenyl]methyl]-4-piperidyl]-3-(cyclopropanecarbonylamino) pyrazole-4-carboxamide] | 209 nM |  | 2.3 nM |  | 
N#CC[C@]1(n2cc(C(N)=O)c(NC(=O)C3CC3)n2)CC[C@@H](NCc2cccc(F)c2)CC1 [Example 114] |  | > 319 nM |  |  | > 562 nM
N#CCC1(n2cc(C(N)=O)c(NC(=O)[C@H]3C[C@H]3C3CC3)n2)CCN(CC(F)(F)F)CC1 (stereo in doubt) [Example 176, 1-[4-(cyanomethyl)-1-(2,2,2-trifluoroethyl)-4-piperidyl]-3-[(2-cyclopropylcyclopropanecarbonyl)amino]pyrazole-4-carboxamide] |  | > 319 nM | 302 nM |  | 
N#CC[C@]1(n2cc(C(N)=O)c(NC(=O)C3CC3)n2)CCN(Cc2ccccc2)C[C@H]1F [Example 165] |  | 211 nM | 27.1 nM |  | 
C[C@@H]1C[C@H]1C(=O)Nc1nn(C2(CC#N)CCN(CC(F)(F)F)CC2)cc1C(N)=O [Example 32] |  | 196 nM | 71.8 nM |  | 
N#CCC1(n2cc(C(N)=O)c(NC(=O)C3CC3)n2)CCN(Cc2ccc(-c3cccc(C(F)(F)F)c3)cc2)CC1 [Example 150, 1-[4-(cyanomethyl)-1-[[4-[3-(trifluoromethyl)phenyl]phenyl]methyl]-4-piperidyl]-3-(cyclopropanecarbonylamino) pyrazole-4-carboxamide] |  | 208 nM | 15.9 nM |  | 
N#CC[C@]1(n2cc(C(N)=O)c(NC(=O)C3CC3)n2)CC[C@@H](NC2CCC(F)(F)CC2)CC1 [Example 175, 1-[1-(cyanomethyl)-4-[(4,4-difluorocyclohexyl)amino]cyclohexyl]-3-(cyclopropanecarbonylamino) pyrazole-4-carboxamide] |  | 321 nM |  |  | 14.1 nM
